Test results from patent publication US20240245721A1, “DOUBLE SIDED CHIMERIC ANTIGEN RECEPTOR (CAR) ENGINEERED CELL MEMBRANE BASED DRUG DELIVERY SYSTEMS” (BOARD OF REGENTS, THE UNIVERSITY OF TEXAS SYSTEM, priority 2021, published 2024).
pIC50: −log10 of the molar value. Read-outs that look alike come from different tables or passages of the source.

Key:
[1] = tested on: A549 cells; experiment: In vitro cytotoxicity (MTT) on A549; assay type: cell-based; settings: Homo sapiens, afatinib: 48 hour exposure, read-out: IC50 (half maximal inhibitory concentration)
Procedure: (§1) A549, MDA-MB-231 and SKOV-3 cells were seeded (5×10^3 cells/well) in 96-well plates and incubated overnight. Free Afatinib, Afatinib loaded PLGA NPs, anti HER-2 PLGA NPs, Jurkat-T-MNPs, and CAR-T-MNPs were added to the seeded cells (n=4). Alternatively, free cisplatin, cisplatin loaded PLGA NPs, Jurkat-T-MNPs, and CAR-T-MNPs were added to the seeded cells (n=4) at a cisplatin concentration of 7 μM (A549) & 3.5 μM (SKOV-3). After incubation for 48 hours, the absorbance at 490 nm was measured using UV-VIS Spectrophotometer (Tecan) after incubating with MTT reagent (Promega) for one hour. Cell viabilities were calculated via normalizing to the control group (cells exposed to complete media, 100% viability).

[2] = tested on: SKOV-3 cells; experiment: In vitro cytotoxicity (MTT) on SKOV-3; assay type: cell-based; settings: read-out: IC50 (half maximal inhibitory concentration)
Procedure: as §1

[3] = tested on: MDA-MB-231 cells; experiment: In vitro cytotoxicity (MTT) on MDA-MB-231; assay type: cell-based; settings: Homo sapiens; MDA-MB-231, 48 hour exposure
Procedure: as §1

[4] = tested on: subcutaneous A549 tumor implanted in nude mice; experiment: In vivo therapeutic efficiency (tumor delay, survival, weight, H&E histology); settings: 2-week post treatment, single IV dose, cisplatin 3 mg/kg
Procedure: Nude mice (NU/J) aged 5-6 weeks were purchased from Jacksons Laboratory. Briefly, 2×10^6 A549 cells in 200 μL of Matrigel (Corning, NY) were injected subcutaneously in athymic nude mice. Tumor volumes were checked at regular intervals of 3 days and treatment started when the volume reached ˜300 mm3. Tumor volumes were measured using a standard Vernier Calipers. All procedures involving experimental animals were performed in accordance with the protocols approved by the University of Texas at Arlington Institutional Animal Care and Use Committee.
Xenograft tumors as described above were used to evaluate the therapeutic efficiency of CAR-T-MNPs. After the tumor reached ˜300 mm3, the mice were randomly distributed into 4 groups (n=3) for different treatment groups. Prior to treatment, all mice were ear-tagged, the initial tumor volumes were measured by a caliper, and the body weights were recorded. The treatment groups received a single tail-vein IV administration of either of 200 μL of saline (control), free drug, Jurkat-T-MNPs or CAR-T-MNPs. Tumor volume was measured every 2-3 days via a caliper. Tumor volumes were calculated by measuring the tumor perpendicular diameters with a caliper and calculated using the formula V=½×a×b2, where a and b are the longest diameter and its longest perpendicular diameter, respectively. […]

Work on CN(C)C/C=C/C(=O)Nc1cc2c(Nc3ccc(F)c(Cl)c3)ncnc2cc1O[C@H]1CCOC1 [afatinib, Afatinib] yielded a pIC50 [1] of ~5.37, a pIC50 ([2]; Homo sapiens, SK-OV-3, afatinib: 48 hour exposure) of ~5.85 and a pIC50 [3] of ~5.43.

For N.N.[Cl][Pt][Cl] [cisplatin, Cisplatin], the pIC50 ([2]; afatinib: 48 hour exposure) was 5.40 and the tumor volume [4] was “increasing trend”.
